Paper PMC3422259, “Additive Mixture Effects of Estrogenic Chemicals in Human Cell-Based Assays Can Be Influenced by Inclusion of Chemicals with Differing Effect Profiles” (PLoS ONE, 2012)
“Also recorded” adds a separate entry of the source. Where two headings read alike, the source gives them in different places.

Tests used:
MCF-7 cells [1] = assay: Modulation studies (ESCREEN only): effect of potential modulators on the response evoked by a reference mixture of estrogens (REFmix); assay type: cell-based, human; conditions: for Modulation of the REFmix effect (in words) / Concentration at which suppression of the ESCREEN response to REFmix began: ESCREEN; for Observed modulation: ESCREEN response to REFmix (Mixture 3d, ca. 50% effect), screening, one experiment; for Concentration at which suppression of the ESCREEN response to REFmix began: individual modulator screening
Text: Modulation studies comprised screening of individual modulators in low power experiments accompanied by parallel testing of an equimolar mixture of all modulators. This combination of low power screening and mixture testing provides the opportunity to assess a high number of chemicals (16 in this case) without a prohibitive amount of experimental effort. In this case the effects of 16 modulators could be evaluated using a total of 19 experimental plates (16 for screening and 3 for mixture testing).
To normalize for small changes in the absolute value of the positive control and the control response to the selected REFmix concentration, the response evoked by the REFmix control on each plate was defined as the 50% effect and all modulator study results are normalized to that value.
A mixture of modulators (MODmix) was also tested and was composed with a fixed ratio of equimolar concentrations, since the activity of each modulator was not known at the time of designing the mixture.
In these modulator studies, we examined 16 single chemicals (listed in Table 7) and an equimolar mixture of all 16 components for their ability to modulate the effects of a reference mixture (REFmix) which contained 14 food additives and contaminants (Table 1, Mixture 3d). […] Single chemicals were tested individually in single experiments (screening) and then a mixture composed using a fixed ratio of equal molarities was subjected to repeated testing.
Figure 5 Results of modulation studies. […] Experimental results are shown as grey circles representing each replicate (duplicate testing within the assay) and obtained in three independent (A) or one (B–Q) experiment (s). Experimental results were normalized by setting the value observed for the REFmix alone, the concentration of which was selected to evoke a […] of ca. 50%, to 0.5. The positive control values (black circles, eight replicates per experimental plate, 25 nM estradiol) are indicated adjacent to the y-axis. […] A black line indicates a LOESS spline fit to the data (A–Q) and a grey line indicates linear regression fit to the data for individual modulators (B–Q). A vertical dotted line is drawn at a mixture concentration of 1.6 µM (A) or at the concentration of each modulator present at that mixture concentration (0.1 uM, B–Q). Visual inspection of the individual modulator results (B–Q) was used to identify possible modulation, i.e. when the experimental data appears to deviate from the linear regression, or when the linear regression is not horizontal, and when the magnitude of the modulation is outside the variation expected in the assay.

MCF-7 cells [2] = assay: Estrogenicity assay, mitogenic endpoint (ESCREEN); conditions: for Signs of estrogenicity (in words): chemical screened as potential modulator, tested alone; for Signs of estrogenicity: Active at concentration: ‘Active’ = positive signal clearly distinguishable from assay variability and noise
Experimental: The ESCREEN assay was performed using cloned MCF-7 cells (described in [6], gifted from A. Soto, Boston) and the established ESCREEN method was followed using an adapted 96-well format. Cells were cultured in DMEM (5% FCS). For experiments, cells were seeded in clear polystyrene 96 well plates at a density of 2,500 cells/well and allowed to attach for 24 hours before washing with rinse media (phenol red-free DMEM, no supplements). […] Test chemicals were dissolved in ethanol to give stock solutions of millimolar concentrations. Test and control solutions were diluted prior to application in dosing media (phenol red free DMEM, 10% charcoal-dextran stripped FCS). The final concentration of ethanol was 0.5% in test and control wells. […] At all stages, media removal from cells was carried out gently and in a controlled fashion by use of an electronic multichannel pipette set to the lowest speed possible. Controls were run as eight replicate wells per plate and compounds were tested in a dilution series comprising eight concentrations, each concentration tested in two replicate wells per plate. The plate layout was designed to reduce variation due to evaporation and spreading of test chemicals, and had been previously optimised in the laboratory. After application of test solutions, plates were incubated for 120 hours before fixation with 10% trichloroacetic acid and sulforhodamine B (SRB) staining to measure protein and allow the indirect quantification of cell number.
(§1) Experiments were performed on different days meaning that results for different dilution series and different batches of the test chemicals were obtained on different days. Each single chemical was tested in three or more independent experiments. Use of normalisation meant that data from different experiments could be reliably combined and compared, as discussed previously. Data was expressed relative to the positive control, rather than as fold change from the vehicle response, for two reasons.
(§2) Results from regression analysis for each test chemicals were used to predict the CA effect for fixed-ratio mixtures designed on 1) equi-effective concentrations (balanced design), 2) possible human serum levels (non-balanced design). The original mathematical formulation of CA that defines for a mixture composed of n components with concentration c1 of the first component, c2 of the second component, and cn for the n-th component a combination effect X is [drawing 1] (1) Here, ECX1, ECX1 …, ECXn are the concentrations of the individual components that on their own produce the same effect X as the mixture, [15] The quotients cn/ECXn are called toxic units and scale all compounds in the mixture relative to their toxicity. They can be interpreted as the contribution of the compound to the total mixture concentration that is expected to produce the mixture effect X. According to equation 1, a mixture effect for a pre-defined effect level X is described only implicitly. However, if the individual concentrations ci are expressed as relative fractions pi to the total mixture concentration ECxMix, then equation 1 can be re-arranged to [drawing 2] (2) which allows the direct calculation of the mixture concentration that is expected to produce the mixture effect X. To form a prediction curve, equation 2 is iterated through for various effect levels resulting in sets of effects and their associated predicted mixture concentration which are then plotted to produce a graph of the effect prediction.
Both equations 1 and 2 require knowledge of the concentration of each mixture component that on its own produces the effect magnitude under consideration. For this reason, these equations cannot be used for predicting mixture effects that exceed the maximal effect of the least efficacious component, because those effect concentrations cannot be defined.

T47D-KBluc cells = assay: cells; conditions: ERLUX
Experimental: T47D-KBluc cells were obtained from the ATCC and the protocol established by the depositing authors was followed. Cells were routinely grown in RPMI media (with 10% foetal calf serum (FCS)). For seven days prior to experiments, cells were maintained in low estrogen conditions by the use of pre-assay media (RPMI, 10% charcoal-dextran stripped FCS, no antibiotics). For experiments, cells were seeded in white polystyrene 96 well plates at a density of 10,000 cells/well and allowed to attach for 24 hours before removal of media, and application of test chemicals. Test chemicals were dissolved in ethanol to give stock solutions of millimolar concentrations. Test and control solutions were obtained by dilution of ethanolic stocks in dosing media (phenol red-free RPMI, 5% charcoal-dextran stripped FCS, no antibiotics), and in all cases the final concentration of ethanol was 0.5%. The positive control was 1 nM estradiol. Positive and vehicle controls were run as eight replicate wells per plate, and compounds were tested in a dilution series comprising eight concentrations, each concentration tested in triplicate. As recommended by Wilson et al. two additional controls were also included on each plate: 1) vehicle control plus an antiestrogen, ICI 182,780 (1 µM), and 2) positive control plus ICI 182,780 (1 µM). […] A crude measure of toxicity was provided by comparing values for treatments that were not positive, with the value of the vehicle control. […] 24 hours after application of test and control solutions, a volume of Steady-Glo assay reagent (Promega) equal to the volume of culture media was added and plates were incubated for ten minutes, with shaking, to allow for cell lysis. Plates were then loaded into a plate reader (FLUOstar Optima, BMG Labtech) and incubated for a further ten minutes in the dark, followed by measurement of luminescence. To reduce variation, the temperature of the plate reader chamber was maintained at 27°C throughout.
as §1
Effect concentrations (ECx) were defined relative to the effects of the estradiol concentration used as the positive control, for example EC50 is the concentration producing an effect of 50% of the positive control (estradiol, 1 nM (ERLUX) or 25 nM (ESCREEN)).
as §2, with “implicitly.” for “implicitly. However, if the individual concentrations ci are expressed as relative fractions pi to the total mixture concentration ECxMix, then equation 1 can be re-arranged to [drawing 2] (2) which allows the direct calculation of the mixture concentration that is expected to produce the mixture effect X. To form a prediction curve, equation 2 is iterated through for various effect levels resulting in sets of effects and their associated predicted mixture concentration which are then plotted to produce a graph of the effect prediction.”

SMILES	Modulation of the REFmix effect (in words) (MCF-7 cells [1])	Observed modulation (MCF-7 cells [1])	Signs of toxicity (in words) (MCF-7 cells [2]; ESCREEN)	Signs of estrogenicity (in words) (MCF-7 cells [2]; ESCREEN)	Concentration at which suppression of the ESCREEN response to REFmix began (MCF-7 cells [1])	Suppression of the ESCREEN response to REFmix (MCF-7 cells [1]; at 100 nM, plateau at that level up to 10 µM) [%]	Signs of estrogenicity: Active at concentration (MCF-7 cells [2]; ESCREEN)	Signs of toxicity (in words) (MCF-7 cells [2])	Estrogenicity when tested alone (in words) (T47D-KBluc cells)	Concentration at which estrogenic activity seen (T47D-KBluc cells; and above) [µM]	Suppression of the REFmix effect (MCF-7 cells [1]; at 10 µM) [%]
Clc1ccc(-c2ccccc2Cl)cc1 [PCB #8, 2,4′-dichlorobiphenyl (PCB #8)]	no indication of negative modulation	None	None	None	–	–	–	–	–	–	–
Clc1cc(Cl)c(-c2cc(Cl)c(Cl)cc2Cl)cc1Cl [PCB #153, 2,2′,4,4′,5,5′-hexachloro biphenyl (PCB #153)]	no indication of negative modulation	None	None	None	–	–	–	–	–	–	–
Clc1ccc(-c2cc(Cl)c(Cl)c(Cl)c2)cc1Cl [PCB #126, 3,3′,4,4′,5-pentachlorobiphenyl (PCB #126)]	clear negative modulation	Clear negative	None	–	1–10 nM and around 10 nM	50	Active at 10 µM or higher	–	–	–	–
Clc1cc(Cl)c(-c2cc(Cl)c(Cl)c(Cl)c2Cl)cc1Cl [PCB #180, 2,2′,3,4,4′,5,5′-heptachloro biphenyl (PCB #180)]	no indication of negative modulation	None	–	None	–	–	–	None	–	–	–
CCOC(=O)c1ccccc1C(=O)OCC [DEP, Di ethyl phthalate]	no indication of negative modulation	None	None	–	–	–	Active at 10 µM or higher	–	estrogenic	0.1 to 1	–
CCCCOC(=O)c1ccccc1C(=O)OCCCC [DBP, Di butyl phthalate]	possible negative modulation	Possible negative	–	–	–	–	Active at 10 µM or higher	None	no estrogenicity	–	–
COc1ccc(O)c(C(C)(C)C)c1 [BHA, Butylated hydroxyl anisole]	possible negative modulation	Possible negative	None	None	–	–	–	–	–	–	–
O=[N+]([O-])[O-].O=[N+]([O-])[O-].[Pb+2] [Pb(NO3)2, Lead nitrate]	possible negative modulation	Possible negative	None	None	–	–	–	–	–	–	–
Cc1cnc2ccc3c(nc(N)n3C)c2n1 [MeIQx, 2-Amino-3,8-dimethyl imidazo [4,5-f] quinoxaline]	no indication of negative modulation	None	None	None	–	–	–	–	–	–	–
Cn1c(N)nc2ncc(-c3ccccc3)cc21 [PhIP, 2-amino-1-methyl-6-phenylimidazo [4,5-b] pyridine]	possible negative modulation	Possible negative	None	None	–	–	–	–	–	–	–
[Cl][Cd][Cl] [CdCl2, Cadmium chloride]	clear negative modulation; also recorded: showed negative modulation	Clear negative	–	None	around 10 nM	–	–	–	–	–	80
Cc1cc(C(C)(C)C)c(O)c(C(C)(C)C)c1 [BHT, Butylated hydroxytoluene]	possible negative modulation	Possible negative	None	None	–	–	–	–	–	–	–
